These compounds were tested on HCV genotype 1b replicon in Huh 7 cells (assay: HCV replicon assay (1b_Huh-Luc/Neo-ET cell line, luciferase readout)). Conditions: Hepatitis C virus, Huh-7; HCV 1b replicon; read-out: Inhibition of HCV genotype 1b.
Format: cell-based
How it was run: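 Huh 7 cells carrying a bicistronic genotype 1b luciferase replicon were treated with compound in triplicate the day after plating and incubated 72 h. Luciferase activity expressed as % of untreated control; EC50 from a four-parameter logistic fit, repeated several times.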

Row | Structure (SMILES) | EC50 [nM]
1 | COC(=O)N[C@H](C(=O)N1CCC[C@H]1c1ncc(-c2ccc(-c3ccc4cc(-c5cnc([C@@H]6CSCN6C(=O)[C@@H](NC(=O)OC)C(C)C)[nH]5)ccc4c3)cc2)[nH]1)C(C)C [compound 451] | < 1

Same assay, conditions: Hepatitis C virus; Table 2; genotype 1b replicon, Huh 7 cells, 72 h, luciferase; read-out: Inhibition of HCV genotype 1b

Row | Structure (SMILES) | EC50 [nM]
2 | COC(=O)N[C@H](C(=O)N1CCC[C@H]1c1ncc(-c2ccc3cc(-c4ccc5nc([C@@H]6CCCN6C(=O)[C@@H](NC(=O)OC)C6CCCC6)[nH]c5c4)ncc3c2)[nH]1)C1CCCC1 [compound 372] | < 1
3 | CC[C@H](C)[C@H](NC(=O)OC)C(=O)N1CCC[C@H]1c1ncc(-c2ccc3cc(-c4ccc5nc([C@@H]6CCCN6C(=O)[C@@H](NC(=O)OC)[C@@H](C)CC)[nH]c5c4)ncc3c2)[nH]1 [compound 374] | < 1
4 | CC[C@@H](C)[C@H](NC(=O)OC)C(=O)N1CCC[C@H]1c1ncc(-c2ccc3cc(-c4ccc5nc([C@@H]6CCCN6C(=O)[C@@H](NC(=O)OC)[C@H](C)CC)[nH]c5c4)ncc3c2)[nH]1 [compound 375] | < 1
5 | COC(=O)N[C@H](C(=O)N1CCC[C@H]1c1ncc(-c2ccc3cc(-c4ccc5nc([C@@H]6CCCN6C(=O)[C@@H](NC(=O)OC)C6CC6)[nH]c5c4)ncc3c2)[nH]1)C1CC1 [compound 376] | < 1
6 | COC(=O)N[C@H](C(=O)N1CCC[C@H]1c1ncc(-c2ccc3cc(-c4ccc5nc([C@@H]6CCCN6C(=O)[C@@H](NC(=O)OC)[C@@H](C)OC)[nH]c5c4)ncc3c2)[nH]1)[C@@H](C)OC [compound 377] | < 1
7 | COC(=O)N[C@H](C(=O)N1CCC[C@H]1c1ncc(-c2ccc3cc(-c4ccc5nc([C@@H]6CCCN6C(=O)[C@@H](NC(=O)OC)C6CCCCC6)[nH]c5c4)ncc3c2)[nH]1)C1CCCCC1 [compound 379] | < 1
8 | COC(=O)N[C@H](C(=O)N1CCC[C@H]1c1ncc(-c2ccc3nc(-c4ccc5nc([C@@H]6CCCN6C(=O)[C@@H](NC(=O)OC)C6CCCC6)[nH]c5c4)ccc3c2)[nH]1)C1CCCC1 [compound 381] | < 1
9 | CCC(CC)[C@H](NC(=O)OC)C(=O)N1CCC[C@H]1c1ncc(-c2ccc3nc(-c4ccc5nc([C@@H]6CCCN6C(=O)[C@@H](NC(=O)OC)C(CC)CC)[nH]c5c4)ccc3c2)[nH]1 [compound 382] | < 1
10 | CC[C@H](C)[C@H](NC(=O)OC)C(=O)N1CCC[C@H]1c1ncc(-c2ccc3nc(-c4ccc5nc([C@@H]6CCCN6C(=O)[C@@H](NC(=O)OC)[C@@H](C)CC)[nH]c5c4)ccc3c2)[nH]1 [compound 383] | < 1
11 | CC[C@@H](C)[C@H](NC(=O)OC)C(=O)N1CCC[C@H]1c1ncc(-c2ccc3nc(-c4ccc5nc([C@@H]6CCCN6C(=O)[C@@H](NC(=O)OC)[C@H](C)CC)[nH]c5c4)ccc3c2)[nH]1 [compound 384] | < 1
12 | COC(=O)N[C@H](C(=O)N1CCC[C@H]1c1ncc(-c2ccc3nc(-c4ccc5nc([C@@H]6CCCN6C(=O)[C@@H](NC(=O)OC)C6CC6)[nH]c5c4)ccc3c2)[nH]1)C1CC1 [compound 385] | < 1
13 | COC(=O)N[C@H](C(=O)N1CCC[C@H]1c1ncc(-c2ccc3nc(-c4ccc5nc([C@@H]6CCCN6C(=O)[C@@H](NC(=O)OC)[C@@H](C)OC)[nH]c5c4)ccc3c2)[nH]1)[C@@H](C)OC [compound 386] | < 1
14 | COC(=O)N[C@H](C(=O)N1CCC[C@H]1c1ncc(-c2ccc3nc(-c4ccc5nc([C@@H]6CCCN6C(=O)[C@@H](NC(=O)OC)C6CCCCC6)[nH]c5c4)ccc3c2)[nH]1)C1CCCCC1 [compound 388] | < 1
15 | COC(=O)N[C@H](C(=O)N1CCC[C@H]1c1ncc(-c2ccc3cc(-c4ccc5nc([C@@H]6CCCN6C(=O)[C@@H](NC(=O)OC)C(C)C)[nH]c5c4)nnc3c2)[nH]1)C(C)C [compound 390] | < 1
16 | COC(=O)N[C@H](C(=O)N1CCC[C@H]1c1ncc(-c2ccc3cc(-c4ccc5nc([C@@H]6CCCN6C(=O)[C@@H](NC(=O)OC)C6CCCC6)[nH]c5c4)nnc3c2)[nH]1)C1CCCC1 [compound 393] | < 1
17 | CC[C@@H](C)[C@H](NC(=O)OC)C(=O)N1CCC[C@H]1c1ncc(-c2ccc3cc(-c4ccc5nc([C@@H]6CCCN6C(=O)[C@@H](NC(=O)OC)[C@H](C)CC)[nH]c5c4)nnc3c2)[nH]1 [compound 396] | < 1
18 | COC(=O)N[C@H](C(=O)N1CCC[C@H]1c1ncc(-c2ccc3cc(-c4ccc5nc([C@@H]6CCCN6C(=O)[C@@H](NC(=O)OC)C6CCCCC6)[nH]c5c4)nnc3c2)[nH]1)C1CCCCC1 [compound 400] | < 1
19 | COC(=O)N[C@H](C(=O)N1CCC[C@H]1c1ncc(-c2ccc3cc(-c4cnc5nc([C@@H]6CCCN6C(=O)[C@@H](NC(=O)OC)C(C)C)[nH]c5c4)ccc3c2)[nH]1)C(C)C [compound 402] | 1 to 9.9
20 | COC(=O)N[C@H](C(=O)N1CCC[C@H]1c1ncc(-c2ccc3cc(-c4cnc5nc([C@@H]6CCCN6C(=O)[C@@H](NC(=O)OC)C6CCCC6)[nH]c5c4)ccc3c2)[nH]1)C1CCCC1 [compound 403] | < 1
21 | CC[C@H](C)[C@H](NC(=O)OC)C(=O)N1CCC[C@H]1c1ncc(-c2ccc3cc(-c4cnc5nc([C@@H]6CCCN6C(=O)[C@@H](NC(=O)OC)[C@@H](C)CC)[nH]c5c4)ccc3c2)[nH]1 [compound 404] | < 1
22 | CC[C@@H](C)[C@H](NC(=O)OC)C(=O)N1CCC[C@H]1c1ncc(-c2ccc3cc(-c4cnc5nc([C@@H]6CCCN6C(=O)[C@@H](NC(=O)OC)[C@H](C)CC)[nH]c5c4)ccc3c2)[nH]1 [compound 405] | < 1
23 | COC(=O)N[C@H](C(=O)N1CCC[C@H]1c1ncc(-c2ccc3cc(-c4cnc5nc([C@@H]6CCCN6C(=O)[C@@H](NC(=O)OC)C6CC6)[nH]c5c4)ccc3c2)[nH]1)C1CC1 [compound 406] | < 1
24 | COC(=O)N[C@H](C(=O)N1CCC[C@H]1c1ncc(-c2ccc3cc(-c4cnc5nc([C@@H]6CCCN6C(=O)[C@@H](NC(=O)OC)C6CCCCC6)[nH]c5c4)ccc3c2)[nH]1)C1CCCCC1 [compound 409] | < 1
25 | COC(=O)N[C@H](C(=O)N1CCC[C@H]1c1ncc(-c2ccc3cc(-c4cc5[nH]c([C@@H]6CCCN6C(=O)[C@@H](NC(=O)OC)C6CCCC6)nc5cn4)ccc3c2)[nH]1)C1CCCC1 [compound 411] | < 1
26 | CC[C@H](C)[C@H](NC(=O)OC)C(=O)N1CCC[C@H]1c1ncc(-c2ccc3cc(-c4cc5[nH]c([C@@H]6CCCN6C(=O)[C@@H](NC(=O)OC)[C@@H](C)CC)nc5cn4)ccc3c2)[nH]1 [compound 412] | < 1
27 | CC[C@@H](C)[C@H](NC(=O)OC)C(=O)N1CCC[C@H]1c1ncc(-c2ccc3cc(-c4cc5[nH]c([C@@H]6CCCN6C(=O)[C@@H](NC(=O)OC)[C@H](C)CC)nc5cn4)ccc3c2)[nH]1 [compound 413] | < 1
28 | COC(=O)N[C@H](C(=O)N1CCC[C@H]1c1ncc(-c2ccc3cc(-c4cc5[nH]c([C@@H]6CCCN6C(=O)[C@@H](NC(=O)OC)C6CC6)nc5cn4)ccc3c2)[nH]1)C1CC1 [compound 414] | < 1
29 | COC(=O)N[C@H](C(=O)N1CCC[C@H]1c1ncc(-c2ccc3cc(-c4cc5[nH]c([C@@H]6CCCN6C(=O)[C@@H](NC(=O)OC)[C@@H](C)OC)nc5cn4)ccc3c2)[nH]1)[C@@H](C)OC [compound 415] | < 1
30 | COC(=O)N[C@H](C(=O)N1CCC[C@H]1c1ncc(-c2ccc3cc(-c4cc5[nH]c([C@@H]6CCCN6C(=O)[C@@H](NC(=O)OC)C6CCCCC6)nc5cn4)ccc3c2)[nH]1)C1CCCCC1 [compound 417] | < 1

Reference: patent publication US8877707B2, “Inhibitors of HCV NS5A” (Presidio Pharmaceuticals, Inc., priority 2010, dated 2014)
